Earlier results on one compound are cited in patent publication US20240156991A1, “STABLE FORMULATIONS OF INDOCYANINE GREEN” (PROVEPHARM LIFE SOLUTIONS, priority 2021, published 2024).

As to `CC1(C)C(/C=C/C=C/C=C/C=C2\N(CCCCS(=O)(=O)O)c3ccc4ccccc4c3C2(C)C)=[N+](CCCCS(=O)(=O)O)c2ccc3ccccc3c21` [ICG, Indocyanine green], where the note is “after 10 hours of storage in water and direct light”, the “reduction of absorbance at spectral peak” value is given as 10%. Further, the fluorescence intensity lost (stored at 4° C. in the dark, three days) is 20%.
